Source: US10519114B2, “Peptidomimetics and methods of using the same” (The Regents of the University of Michigan, priority 2016, dated 2019)

Tests used:
[1] = molecular target: T1, rat δ (C6-DOR) opioid receptor (Rattus norvegicus, UniProt P33533); assay: Radioligand binding assay, [3H]diprenorphine displacement, DOR; conditions: displacement of 0.2 nM [3H]diprenorphine, C6-DOR membranes; mean ± standard error
T1 construct: expressed in transfected cells
Summary of the method: (§1)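 C6-MOR/C6-DOR (rat) or CHO-KOR (human) membranes, 20 μg protein; 0.2 nM [3H]diprenorphine; 50 mM Tris-HCl pH 7.4; 1 h, RT; GF/C filtration, scintillation counting; NSB 10 μM naloxone; Ki by logistic fit, mean±SEM of ≥3 assays in duplicate.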

[2] = molecular target: T2, human κ (CHO-KOR) opioid receptor (Homo sapiens, UniProt P41145); assay: Stimulation of [35S]GTPγS binding, KOR; type: biochemical; conditions: for EC50 / EC50 (nm) KOR: [35S]GTPγS binding, CHO-KOR membranes, mean ± standard error; for Emax / % stimulation KOR: [35S]GTPγS maximal stimulation compared with 10 μM standard U-69,593
T2 construct: expressed in transfected cells
Summary of the method: (§2)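 Membranes (10–20 μg protein) from C6 glioma cells expressing rat MOR or DOR, or CHO cells expressing human KOR, were incubated 1 h at room temperature with 0.1 nM [35S]GTPγS, 30 μM GDP and test peptides in Tris buffer pH 7.4. Bound label was filtered and counted; maximal stimulation, by nonlinear regression, was relative to 10 μM DAMGO (MOR), DPDPE (DOR) or U69,593 (KOR).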

[3] = molecular target: T3, rat μ (C6-MOR) opioid receptor (Rattus norvegicus, UniProt P33535); assay: Radioligand binding assay, [3H]diprenorphine displacement, MOR; conditions: displacement of 0.2 nM [3H]diprenorphine, C6-MOR membranes; mean ± standard error
T3 construct: expressed in transfected cells
Summary of the method: as §1

[4] = molecular target: T2, human κ (CHO-KOR) opioid receptor; assay: Radioligand binding assay, [3H]diprenorphine displacement, KOR; conditions: displacement of 0.2 nM [3H]diprenorphine, CHO-KOR membranes; mean ± standard error
Summary of the method: as §1

[5] = molecular target: T3, rat μ (C6-MOR) opioid receptor; assay: Stimulation of [35S]GTPγS binding, MOR; type: biochemical
Summary of the method: as §2

[6] = molecular target: T1, rat δ (C6-DOR) opioid receptor; assay: Stimulation of [35S]GTPγS binding, DOR; type: biochemical; conditions: for EC50 / EC50 (nm) DOR: [35S]GTPγS binding, C6-DOR membranes, mean ± standard error; for Emax / % stimulation DOR: [35S]GTPγS maximal stimulation compared with 10 μM standard DPDPE
Summary of the method: as §2

[7] = [35S]GTPγS binding, C6-MOR membranes, mean ± standard error
[8] = [35S]GTPγS maximal stimulation compared with 10 μM standard DAMGO

T3 sequence (P33535 whole entry): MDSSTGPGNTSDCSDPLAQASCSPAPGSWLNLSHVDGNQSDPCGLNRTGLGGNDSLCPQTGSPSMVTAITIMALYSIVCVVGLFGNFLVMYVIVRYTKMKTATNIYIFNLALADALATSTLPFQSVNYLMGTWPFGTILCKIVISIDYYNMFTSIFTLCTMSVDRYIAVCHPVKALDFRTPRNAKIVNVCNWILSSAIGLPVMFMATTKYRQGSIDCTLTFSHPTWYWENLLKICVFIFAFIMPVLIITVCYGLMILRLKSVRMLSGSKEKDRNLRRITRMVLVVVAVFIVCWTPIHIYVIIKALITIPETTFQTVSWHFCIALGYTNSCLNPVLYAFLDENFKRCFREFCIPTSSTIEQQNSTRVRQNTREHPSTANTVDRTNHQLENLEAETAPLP
T2 sequence (P41145 whole entry): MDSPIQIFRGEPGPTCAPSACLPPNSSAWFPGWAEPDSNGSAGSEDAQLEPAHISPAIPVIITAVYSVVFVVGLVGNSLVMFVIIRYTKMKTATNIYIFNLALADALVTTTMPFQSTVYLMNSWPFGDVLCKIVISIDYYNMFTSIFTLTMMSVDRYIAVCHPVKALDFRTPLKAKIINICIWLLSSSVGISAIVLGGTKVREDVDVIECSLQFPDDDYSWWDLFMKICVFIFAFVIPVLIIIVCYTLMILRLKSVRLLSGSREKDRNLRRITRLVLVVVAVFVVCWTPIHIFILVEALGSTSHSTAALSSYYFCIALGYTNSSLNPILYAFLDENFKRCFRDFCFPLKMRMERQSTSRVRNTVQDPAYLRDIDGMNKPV
T1 sequence (P33533 whole entry): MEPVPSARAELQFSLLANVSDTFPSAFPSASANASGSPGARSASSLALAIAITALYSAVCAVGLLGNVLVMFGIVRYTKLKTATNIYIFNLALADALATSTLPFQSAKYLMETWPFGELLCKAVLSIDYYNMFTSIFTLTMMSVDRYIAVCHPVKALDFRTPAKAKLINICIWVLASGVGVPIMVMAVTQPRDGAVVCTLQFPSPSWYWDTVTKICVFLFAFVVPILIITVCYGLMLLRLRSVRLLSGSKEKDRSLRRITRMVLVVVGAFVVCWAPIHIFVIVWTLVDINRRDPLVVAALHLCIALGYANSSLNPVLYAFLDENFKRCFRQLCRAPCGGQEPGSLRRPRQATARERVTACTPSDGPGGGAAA

Row | Compound | Ki [1] [nM] | EC50 [2] [nM] | Emax [2] [%] | Ki [3] [nM] | Ki [4] [nM] | EC50 [5, 7] [nM] | Emax [5, 8] [%] | EC50 [6] [nM] | Emax [6] [%] | EC50 (nm) MOR [5, 7] | % stimulation MOR [5, 8] | EC50 (nm) DOR [6] | % stimulation DOR [6] | EC50 (nm) KOR [2] | % stimulation KOR [2]
1 | CC(=O)N1CC[C@@H](NC(=O)[C@@H](N)Cc2c(C)cc(O)cc2C)c2cc(Cc3ccccc3)cc(C)c21 [Compound 1055] | 1.88 ± 0.53 | 930 ± 600 | 32 ± 2 | 0.18 ± 0.04 | 80 ± 20 | 7.05 ± 2.32 | 86 ± 3 | 384 ± 296 | 30 ± 3 | – | – | – | – | – | –
2 | Cc1cc(O)cc(C)c1C[C@H](N)C(=O)N[C@@H]1CCNc2ccc(CN3CCC4(CCCCC4)CC3)cc21 [Compound 1060] | 36.5 ± 18.9 | 92.1 ± 15.5 | 71.6 ± 4.38 | 0.22 ± 0.1 | 2.44 ± 0.99 | – | – | – | – | dns | dns | dns | dns | – | –
3 | Cc1cc(O)cc(C)c1C[C@H](N)C(=O)N[C@@H]1CCNc2ccc(CN3CCc4cccc(C(F)(F)F)c4C3)cc21 [Compound 1061] | 13.6 ± 1.27 | – | – | 0.17 ± 0.03 | 48.5 ± 17.5 | 8.88 ± 2.71 | 37.8 ± 2.55 | – | – | – | – | dns | dns | dns | dns
4 | CC(=O)N1CC[C@@H](NC(=O)[C@@H](N)Cc2c(C)cc(O)cc2C)c2cc(CN3CCc4ccc(F)cc4C3)ccc21 [Compound 1062] | 0.77 ± 0.23 | 234 ± 70.1 | 34.2 ± 8.24 | 0.05 ± 0.01 | 16.2 ± 7.94 | 23.7 ± 26.7 | 99.6 ± 1.92 | – | – | – | – | dns | dns | – | –
5 | COc1cc(Cc2ccccc2)cc2c1NCC[C@H]2NC(=O)[C@@H](N)Cc1c(C)cc(O)cc1C [Compound 1063] | 3.08 ± 1 | – | – | 0.24 ± 0.11 | 29.9 ± 10.4 | 2.5 ± 0.45 | 84.1 ± 0.96 | 63.3 ± 12.2 | 50.8 ± 9.61 | – | – | – | – | dns | dns
6 | Cc1cc(O)cc(C)c1C[C@H](N)C(=O)N[C@@H]1CCNc2ccc(Cc3cc4ccccc4o3)cc21 [Compound 1065] | 4.76 ± 1.9 | – | – | 0.11 ± 0.03 | 41.4 ± 22.4 | 1.14 ± 0.49 | 97.9 ± 1.43 | – | 13.9 | – | – | dns | – | dns | dns
7 | CC(=O)N1CC[C@@H](NC(=O)[C@@H](N)Cc2c(C)cc(O)cc2C)c2cc(CN3CCc4cccc(C(F)(F)F)c4C3)ccc21 [Compound 1066] | 3.05 ± 0.88 | – | – | 0.16 ± 0.01 | 59.2 ± 12.4 | 1.25 ± 0.44 | 55.1 ± 2.83 | – | – | – | – | dns | dns | dns | dns
8 | CC(=O)N1CC[C@@H](NC(=O)[C@@H](N)Cc2c(C)cc(O)cc2C)c2cc(-c3ccccc3)ccc21 [Compound 1067] | 1.32 ± 0.37 | 291 ± 32.5 | 69.1 ± 5.04 | 0.88 ± 0.4 | 35.8 ± 16.8 | 5.64 ± 0.35 | 51.3 ± 8.48 | 1520 ± 889 | 37.4 ± 6.31 | – | – | – | – | – | –
9 | Cc1cc(O)cc(C)c1C[C@H](N)C(=O)N[C@@H]1CCNc2ccc(-c3ccccc3)cc21 [Compound 1068] | 13.4 ± 4.32 | 933 ± 219 | 57.1 ± 2.63 | 1.11 ± 0.44 | 165 ± 110 | 11.8 ± 5.77 | 23.7 ± 5.88 | – | – | – | – | dns | dns | – | –
10 | Cc1cc(O)cc(C)c1C[C@H](N)C(=O)N[C@@H]1CCN2CCCc3cc(Cc4ccccc4)cc1c32 [Compound 1069] | 2.26 ± 0.8 | 1000 | 78.4 | 0.39 ± 0.14 | 6.62 ± 2.57 | 1.12 ± 0.52 | 95.2 ± 3.99 | 570 ± 298 | 50.4 ± 13.7 | – | – | – | – | – | –
11 | COc1cc(Cc2ccccc2)cc2c1N(C(C)=O)CC[C@H]2NC(=O)[C@@H](N)Cc1c(C)cc(O)cc1C [Compound 1076] | 2.16 ± 1.15 | 1480 ± 639 | 16.1 ± 5.54 | 0.14 ± 0.01 | 44.8 ± 16.9 | 0.78 ± 0.2 | 95.8 ± 10.2 | 4.62 ± 1.9 | 44.6 ± 3.75 | – | – | – | – | – | –
12 | Cc1cc(O)cc(C)c1C[C@H](N)C(=O)N[C@H]1c2cc(Cc3ccccc3)ccc2NC[C@H]1C [Compound 1078] | 2.02 ± 0.21 | 900 ± 326 | 26.4 ± 5.75 | 0.75 ± 0.03 | 17.7 ± 2.24 | 3.14 ± 1.51 | 80.2 ± 7.89 | 30.9 | 21.4 | – | – | – | – | – | –
13 | Cc1cc(O)cc(C)c1C[C@H](N)C(=O)N[C@@H]1CCNc2c(-c3cc4ccccc4o3)cc(Cc3ccccc3)cc21 [Compound 1095] | 71 ± 17 | – | – | 3.14 ± 1 | 800 ± 115 | 15.6 ± 6.86 | 100 ± 2.48 | – | – | – | – | dns | dns | dns | dns
14 | Cc1cc(O)cc(C)c1C[C@H](N)C(=O)N[C@@H]1CCNc2c(CN3CCN(C(=O)[C@@H](N)Cc4c(C)cc(O)cc4C)CC3)cc(Cc3ccccc3)cc21 [Compound 1096] | 2.56 ± 0.53 | – | – | 0.31 ± 0.16 | 7.17 ± 2.38 | 5.89 ± 0.68 | 86 ± 8 | – | – | – | – | dns | dns | dns | dns
15 | Cc1cc(O)cc(C)c1C[C@H](N)C(=O)N[C@@H]1CCOc2ccc(Cc3ccccc3)cc21 [Compound 1111] | 8.65 ± 1.61 | 662 ± 152 | 28.3 ± 6.71 | 0.046 ± 0.028 | 58.3 ± 14.1 | 4.85 ± 2.14 | 69.7 ± 5.97 | 118 ± 2.45 | 8.97 ± 4.78 | – | – | – | – | – | –
16 | Cc1cc(O)cc(C)c1C[C@H](N)C(=O)N[C@H]1CCOc2ccc(Cc3ccccc3)cc21 [Compound 1112] | 260 ± 62.9 | – | -0.061 ± 0.45 | 6.07 ± 2.41 | 354 ± 37.1 | 654 ± 361 | 7.18 ± 2.41 | – | 2.48 ± 3.08 | – | – | – | – | – | –
17 | Cc1cc(O)cc(C)c1C[C@H](N)C(=O)N[C@@H]1CCCc2ccccc21 [Compound 1113] | 640 ± 218 | – | -1.05 | 25.6 ± 10.9 | 2060 ± 582 | – | 3.44 ± 2.09 | – | -0.76 ± 0.62 | – | – | – | – | – | –
18 | Cc1cc(O)cc(C)c1C[C@H](N)C(=O)NC1CCc2ccc(Cc3ccccc3)cc21 (some centres unmarked) [Compound 1114] | 29.9 ± 10.1 | 1600 | 3.7 ± 4.06 | 0.55 ± 0.09 | 143 ± 45.4 | 18.3 ± 8.14 | 42.6 ± 8.65 | – | 3.07 ± 1.82 | – | – | – | – | – | –
19 | Cc1cc(O)cc(C)c1C[C@H](N)C(=O)N[C@@H]1CCCc2ccc(-c3cccc4ccccc34)cc21 [Compound 1115] | 45.5 ± 26.9 | 200 | 3.82 ± 3.2 | 5.44 ± 2.7 | 131 ± 42.3 | – | 0.34 ± 3.26 | – | -2.57 ± 4.3 | – | – | – | – | – | –
20 | Cc1cc(O)cc(C)c1C[C@H](N)C(=O)N[C@@H]1CCCc2ccc(-c3ccc4ccccc4c3)cc21 [Compound 1116] | 6.03 ± 0.2 | 237 | 5.57 ± 8.53 | 0.24 ± 0.12 | 315.9 ± 0.91 | – | -1.1 ± 1.61 | – | 1.75 ± 1.44 | – | – | – | – | – | –
21 | Cc1cc(O)cc(C)c1C[C@H](N)C(=O)N[C@@H]1CCCc2ccc(-c3ccccc3)cc21 [Compound 1117] | 3.99 ± 1.31 | 321 ± 176 | 45.6 ± 1.77 | 0.57 ± 0.32 | 20.9 ± 4.12 | 9.51 ± 3.3 | 28.7 ± 2.39 | 181 ± 28.2 | 21.2 ± 10.7 | – | – | – | – | – | –
22 | Cc1cc(O)cc(C)c1C[C@H](N)C(=O)N[C@@H]1CCSc2ccc(Cc3ccccc3)cc21 [Compound 1123] | 4.79 ± 1.11 | 337 ± 205 | 10.3 ± 5.17 | 0.15 ± 0.04 | 48.4 ± 23.1 | 1.92 ± 0.54 | 79.9 ± 7.51 | – | – | – | – | dns | dns | – | –
23 | Cc1cc(O)cc(C)c1C[C@H](N)C(=O)N[C@@H]1CCS(=O)(=O)c2ccc(Cc3ccccc3)cc21 [Compound 1124] | 2.34 ± 1.42 | 721 ± 317 | 35.8 ± 2.15 | 0.06 ± 0.01 | 27.2 ± 5.99 | 0.72 ± 0.11 | 94.5 ± 3.04 | 126 ± 72.5 | 45.2 ± 5.62 | – | – | – | – | – | –
24 | CC(=O)N1CC[C@@H](NC(=O)[C@@H](N)Cc2c(C)cc(O)cc2C)c2cc(CC3Cc4ccccc4C3C)ccc21 (some centres unmarked) [Compound 1125] | 0.67 ± 0.08 | – | – | 0.28 ± 0.12 | 2.53 ± 1.52 | 3.03 ± 2.32 | 69.5 ± 10.4 | – | – | – | – | dns | dns | dns | dns
25 | Cc1cc(O)cc(C)c1C[C@H](N)C(=O)N[C@@H]1CCNc2c(CN3CCNCC3)cc(Cc3ccccc3)cc21 [Compound 1131] | 22 | 190 | 18 | 0.35 | 1.9 | 8 | 61 | 280 | 17 | – | – | – | – | – | –
